In US7511146B2, “2-substituted benzimidazole piperidines analogs as selective melanin concentrating hormone receptor antagonists for the treatment of obesity and related disorders” (Schering Corporation, priority 2003, dated 2009) one finds Ki data, which are given here for 34 compounds.

This test deals with T1, MCH receptor (Homo sapiens, UniProt Q99705).
T1 construct: expressed in transfected cells; host or cells: CHO cells
The test is described as follows: MCH Receptor Binding Assay ([125I]-MCH, SPA, membranes from CHO cells expressing the MCH receptor). Particulars: [125I]-MCH displacement, CHO cell membranes. The protocol: MCH Receptor Binding Assay:
Membranes from CHO cells expressing the MCH receptor were prepared by lysing cells with 5 mM HEPES for 15 min at 4C. Cell lysates were centrifuged ([…], 15 min) and the pellet was resuspended in 5 mM HEPES. For each 96-well plate (Microlite, Dynex Technologies), 1 mg of cell membranes were incubated with 10 mg of wheat germ agglutinin SPA beads (Amersham) for 5 min at 4 C in a volume of 10 ml of binding buffer (25 mM HEPES, 10 mM MGCl2, 10 mM NaCl, 5 mM MnCl2, 0.1% BSA). The membrane/bead mixture was centrifuged (1500×g, 3.5 min), the supernatant was aspirated, and the pellet was resuspended in 10 ml binding buffer. The centrifugation, aspiration and resuspension were then repeated. The membrane/bead mixture (100 μl) was then added to 96-well plates containing 50 μl of 500 pM [^125I]-MCH (NEN) and […] of the appropriate concentration of compound (4× the desired final concentration). Nonspecific binding was determined by including 1 μM MCH in the binding reaction. The binding reaction was incubated at room temperature for 2 h. Plates were then analyzed in a TOPCOUNT microplate scintillation counter (Packard). Data was analyzed and Ki values were determined using GraphPad Prism.

Setting [1] is: read-out: Class (Ki, MCH receptor binding).

pKi: −log10 of the molar value. Where two headings read alike, the source gives them in different places. A value given as a limit tells only on which side of the number the result lay.

T1 sequence (Q99705 whole entry): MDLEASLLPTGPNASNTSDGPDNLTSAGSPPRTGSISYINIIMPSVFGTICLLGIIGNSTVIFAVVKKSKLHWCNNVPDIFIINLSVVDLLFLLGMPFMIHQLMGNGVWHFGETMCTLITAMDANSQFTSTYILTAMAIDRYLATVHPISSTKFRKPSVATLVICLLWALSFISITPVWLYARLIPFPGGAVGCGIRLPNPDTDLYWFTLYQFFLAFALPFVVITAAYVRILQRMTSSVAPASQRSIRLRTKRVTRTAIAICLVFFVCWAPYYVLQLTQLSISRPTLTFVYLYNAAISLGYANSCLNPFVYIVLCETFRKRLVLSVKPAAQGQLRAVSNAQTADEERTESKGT

As to `CCNC(=O)N1CCC(COc2nc3cc(Cl)c(Cl)cc3[nH]2)(c2ccc(-c3cccc(C#N)c3)cc2)CC1` [Compound 58, 4-(3′-Cyano-biphenyl-4-yl)-4-(5,6-dichloro-1H-benzoimidazol-2-yloxymethyl)-piperidine-1-carboxylic acid ethylamide], the negative-log Ki (pKi) under setting [1] was less than 7.00.

In the case of `N#Cc1cccc(-c2ccc(C(OCc3nc4cc(F)c(Cl)cc4[nH]3)C3CCN(CCCCCO)CC3)cc2)c1` (centres unmarked) [Compound 34D], under setting [1], the pKi was less than 7.00.

`N#Cc1cccc(-c2ccc(C(NCc3nc4cc(Cl)c(Cl)cc4[nH]3)C3CCNCC3)cc2)c1` (centres unmarked) [Compound 16A]: under setting [1], the pKi is greater than 7.70.

Regarding `CC(C)(C)OC(=O)N1CCC(OCc2nc3cc(F)c(F)cc3[nH]2)(c2ccc(-c3cccc(C#N)c3)cc2)CC1` [Compound 63, 4-(3′-Cyano-biphenyl-4-yl)-4-(5,6-difluoro-1H-benzoimidazol-2-ylmethoxy)-piperidine-1-carboxylic acid tert-butyl ester], the pKi under setting [1] is less than 7.00.

`N#Cc1cccc(-c2ccc(C(CCc3nc4cc(Cl)c(Cl)cc4[nH]3)C3CCN(Cc4ccccc4)CC3)cc2)c1` (centres unmarked) [Compound 75A]: the pKi under setting [1] is 7.00 to 7.30.

Consider `N#Cc1cccc(-c2ccc(C(OCc3nc4cc(F)c(Cl)cc4[nH]3)C3CCNCC3)cc2)c1` (centres unmarked) [Compound 33], for which the pKi under setting [1] is 7.30 to 7.70.

Consider `CS(=O)(=O)N1CCC(C(OCc2nc3cc(Cl)c(Cl)cc3[nH]2)c2ccc(-c3cccc(C#N)c3)cc2)CC1` (centres unmarked) [Compound 39], for which the pKi under setting [1] is less than 7.00.

Take `N#Cc1cccc(-c2ccc(C(OCc3nc4cc(F)c(Cl)cc4[nH]3)C3CCN(CC4CC4)CC3)cc2)c1` (centres unmarked) [Compound 34A]: the pKi under setting [1] is 7.30 to 7.70.

Take `N#Cc1cccc(-c2ccc(C3(CCc4nc5cc(Cl)c(F)cc5[nH]4)CCNCC3)cc2)c1` [Compound 11B]: the pKi under setting [1] was less than 7.00.

`N#Cc1cccc(-c2ccc(C(NCc3nc4cc(Cl)c(F)cc4[nH]3)C3CCNCC3)cc2)c1` (centres unmarked) [Compound 16B]: under setting [1], the pKi was 7.30 to 7.70.

With `N#Cc1cccc(-c2ccc(C(CCc3nc4c(Cl)cc(Cl)cc4[nH]3)C3CCN(Cc4ccccc4)CC3)cc2)c1` (centres unmarked) [Compound 75C], the pKi under setting [1] is 7.30 to 7.70.

Take `N#Cc1cccc(-c2ccc(C(CCc3nc4cc(Cl)c(F)cc4[nH]3)C3CCN(Cc4ccccc4)CC3)cc2)c1` (centres unmarked) [Compound 75B]: the pKi under setting [1] is 7.30 to 7.70.

With `CC(C)(C)OC(=O)N1CCC(COc2nc3cc(Cl)c(Cl)cc3[nH]2)(c2ccc(-c3cccc(C#N)c3)cc2)CC1` [Compound 53, 4-(3′-cyano-biphenyl-4-yl)-4-(5,6-dichloro-1H-benzoimidazol-2-yloxymethyl)-piperidine-1-carboxylic acid tert-butyl ester], under setting [1], the pKi was less than 7.00.

As to `N#Cc1cccc(-c2ccc(C3(CNc4nc5cc(F)c(F)cc5[nH]4)CCN(C4CCC4)CC3)cc2)c1` [Compound 8C], under setting [1], the pKi was 7.30 to 7.70.

In the case of `N#Cc1cccc(-c2ccc(C3(NCc4nc5cc(Cl)c(Cl)cc5[nH]4)CCN(C4CCCC4)CC3)cc2)c1` [Compound 67A, 4′-{1-Cyclopentyl-4-[(5,6-dichloro-1H-benzoimidazol-2-ylmethyl)-amino]-piperidin-4-yl}-biphenyl-3-carbonitrile], under setting [1], the pKi is less than 7.00.

For the compound `N#Cc1cccc(-c2ccc(C(OCc3nc4cc(F)c(Cl)cc4[nH]3)C3CCN(C4CCCC4)CC3)cc2)c1` (centres unmarked) [Compound 34C], the pKi under setting [1] was 7.30 to 7.70.

Take `N#Cc1cccc(-c2ccc(C(NCc3nc4cc(Cl)c(F)cc4[nH]3)C3CCN(CC4CC4)CC3)cc2)c1` (centres unmarked) [Compound 17A]: the pKi under setting [1] was greater than 7.70.

Regarding `N#Cc1cccc(-c2ccc(C3(CCc4nc5cc(Cl)c(F)cc5[nH]4)CCN(CC4CC4)CC3)cc2)c1` [Compound 11C], the negative-log Ki (pKi) under setting [1] is less than 7.00.

Regarding `N#Cc1cccc(-c2ccc(C(CNc3nc4cc(F)c(F)cc4[nH]3)C3CCN(Cc4ccccc4)CC3)cc2)c1` (centres unmarked) [Compound 28B], the pKi under setting [1] is greater than 7.70.

Consider `N#Cc1cccc(-c2ccc(C3(NCc4nc5ccccc5[nH]4)CCN(C4CCCC4)CC3)cc2)c1` [Compound 67B], for which the negative-log Ki (pKi) under setting [1] is less than 7.00.

Turning to `CC(C)(C)OC(=O)N1CCC(C(NCc2nc3cc(Cl)c(Cl)cc3[nH]2)c2ccc(-c3cccc(C#N)c3)cc2)CC1` (centres unmarked) [Compound 15A], the pKi under setting [1] is 7.00 to 7.30.

For `N#Cc1cccc(-c2ccc(C3(CNc4nc5cc(F)c(F)cc5[nH]4)CCN(CC4CC4)CC3)cc2)c1` [Compound 8B], the pKi under setting [1] was 7.30 to 7.70.

On to `N#Cc1cccc(-c2ccc(C(CNc3nc4cc(Cl)c(Cl)cc4[nH]3)C3CCN(Cc4ccccc4)CC3)cc2)c1` (centres unmarked) [Compound 28A], for which the pKi is, setting by setting: under setting [1], greater than 7.70; (read-out: Ki value) 8.52.

Take `N#Cc1cccc(-c2ccc(C(CSc3nc4cc(F)c(Cl)cc4[nH]3)C3CCNCC3)cc2)c1` (centres unmarked) [Compound 48]: the pKi under setting [1] is less than 7.00.

As to `COC(=O)N1CCC(CNc2nc3cc(F)c(F)cc3[nH]2)(c2ccc(-c3cccc(C#N)c3)cc2)CC1` [Compound 8D], the negative-log Ki (pKi) under setting [1] is less than 7.00.

`N#Cc1cccc(-c2ccc(C3(COc4nc5cc(Cl)c(Cl)cc5[nH]4)CCN(CC4CC4)CC3)cc2)c1` [Compound 57, 4′-[1-Cyclopropylmethyl-4-(5,6-dichloro-1H-benzoimidazol-2-yloxymethyl)-piperidin-4-yl]-biphenyl-3-carbonitrile]: the pKi under setting [1] is 7.00 to 7.30.

For the compound `CS(=O)(=O)N1CCC(COc2nc3cc(Cl)c(Cl)cc3[nH]2)(c2ccc(-c3cccc(C#N)c3)cc2)CC1` [Compound 56, 4′-[4-(5,6-Dichloro-1H-benzoimidazol-2-yloxymethyl)-1-methanesulfonyl-piperidin-4-yl]-biphenyl-3-carbonitrile], the pKi under setting [1] was less than 7.00.

Take `CC(=O)N1CCC(C(OCc2nc3cc(Cl)c(Cl)cc3[nH]2)c2ccc(-c3cccc(C#N)c3)cc2)CC1` (centres unmarked) [Compound 44]: the pKi under setting [1] was less than 7.00.

Turning to `N#Cc1cccc(-c2ccc(C3(CCc4nc5cc(F)c(F)cc5[nH]4)CCN(CC4CC4)CC3)cc2)c1` [Compound 11A], the pKi under setting [1] is less than 7.00.

Consider `N#Cc1cccc(-c2ccc(C3(COc4nc5cc(Cl)c(Cl)cc5[nH]4)CCNCC3)cc2)c1` [Compound 54, 4′-[4-(5,6-Dichloro-1H-benzoimidazol-2-yloxymethyl)-piperidin-4-yl]-biphenyl-3-carbonitrile], for which the pKi under setting [1] is 7.00 to 7.30.

For `N#Cc1cccc(-c2ccc(C3(CNc4nc5cc(F)c(F)cc5[nH]4)CCNCC3)cc2)c1` [Compound 8A], the pKi under setting [1] is 7.30 to 7.70.

On to `CC(C)(C)OC(=O)N1CCC(C(NCc2nc3cc(F)c(Cl)cc3[nH]2)c2ccc(-c3cccc(C#N)c3)cc2)CC1` (centres unmarked) [Compound 15B], for which the pKi under setting [1] was 7.30 to 7.70.

Regarding `N#Cc1cccc(-c2ccc(C(OCc3nc4cc(F)c(Cl)cc4[nH]3)C3CCN(Cc4ccccc4)CC3)cc2)c1` (centres unmarked) [Compound 34B], the pKi under setting [1] was 7.30 to 7.70.

On to `N#Cc1cccc(-c2ccc(C(NCc3nc4cc(Cl)c(F)cc4[nH]3)C3CCN(C4CCCC4)CC3)cc2)c1` (centres unmarked) [Compound 17B], for which the pKi under setting [1] was 7.30 to 7.70.

By pKi is commonly meant the Ki on a negative log10 scale, so that one unit is a factor of ten.
